ChEMBL document CHEMBL4000244, “Probing A-form DNA: A fluorescent aminosugar probe and dual recognition by anthraquinone-neomycin conjugates” (Bioorg Med Chem, 2017)

How the values were obtained:
[1] = Binding affinity to 5'-CCCCCCCC-3' DNA hairpin assessed as change in fluorescence intensity at 1 uM after 45 mins by fluorescence quenching analysis relative to control
[2] = Binding affinity to 5'-GGCCCCCC-3' DNA hairpin assessed as change in fluorescence intensity at 1 uM after 45 mins by fluorescence quenching analysis relative to control
[3] = Binding affinity to 5'-GCCCCCGG-3' DNA hairpin assessed as change in fluorescence intensity at 1 uM after 45 mins by fluorescence quenching analysis relative to control
[4] = Binding affinity to 5'-GGCCCCCG-3' DNA hairpin assessed as change in fluorescence intensity at 1 uM after 45 mins by fluorescence quenching analysis relative to control
[5] = Binding affinity to 5'-CCCCCCCG-3' DNA hairpin assessed as change in fluorescence intensity at 1 uM after 45 mins by fluorescence quenching analysis relative to control
[6] = Binding affinity to 5'-GCCCCCGC-3' DNA hairpin assessed as change in fluorescence intensity at 1 uM after 45 mins by fluorescence quenching analysis relative to control
[7] = Binding affinity to 5'-GGCCCGGG-3' DNA hairpin assessed as change in fluorescence intensity at 1 uM after 45 mins by fluorescence quenching analysis relative to control
[8] = Binding affinity to 5'-GCCCCGGC-3' DNA hairpin assessed as change in fluorescence intensity at 1 uM after 45 mins by fluorescence quenching analysis relative to control
[9] = Binding affinity to 5'-GGGGGGGC-3' DNA hairpin assessed as change in fluorescence intensity at 1 uM after 45 mins by fluorescence quenching analysis relative to control
[10] = Binding affinity to 5'-CCCCCCGC-3' DNA hairpin assessed as change in fluorescence intensity at 1 uM after 45 mins by fluorescence quenching analysis relative to control
[11] = Binding affinity to 5'-CGCCCCCG-3' DNA hairpin assessed as change in fluorescence intensity at 1 uM after 45 mins by fluorescence quenching analysis relative to control
[12] = Binding affinity to 5'-CGGGCCCC-3' DNA hairpin assessed as change in fluorescence intensity at 1 uM after 45 mins by fluorescence quenching analysis relative to control
[13] = Binding affinity to 5'-GCGGGGGG-3' DNA hairpin assessed as change in fluorescence intensity at 1 uM after 45 mins by fluorescence quenching analysis relative to control
[14] = Binding affinity to 5'-CCCGGGCG-3' DNA hairpin assessed as change in fluorescence intensity at 1 uM after 45 mins by fluorescence quenching analysis relative to control
[15] = Binding affinity to 5'-GGCGGCCC-3' DNA hairpin assessed as change in fluorescence intensity at 1 uM after 45 mins by fluorescence quenching analysis relative to control
[16] = Binding affinity to 5'-CGCGGCCG-3' DNA hairpin assessed as change in fluorescence intensity at 1 uM after 45 mins by fluorescence quenching analysis relative to control
[17] = Binding affinity to 5'-GGGGCGGC-3' DNA hairpin assessed as change in fluorescence intensity at 1 uM after 45 mins by fluorescence quenching analysis relative to control
[18] = Binding affinity to 5'-CGCGGCCC-3' DNA hairpin assessed as change in fluorescence intensity at 1 uM after 45 mins by fluorescence quenching analysis relative to control
[19] = Binding affinity to 5'-CGGCGCCC-3' DNA hairpin assessed as change in fluorescence intensity at 1 uM after 45 mins by fluorescence quenching analysis relative to control
[20] = Binding affinity to 5'-GGGCGGGG-3' DNA hairpin assessed as change in fluorescence intensity at 1 uM after 45 mins by fluorescence quenching analysis relative to control
[21] = Binding affinity to 5'-GCCGGCCG-3' DNA hairpin assessed as change in fluorescence intensity at 1 uM after 45 mins by fluorescence quenching analysis relative to control
[22] = Binding affinity to 5'-CCCCGCCC-3' DNA hairpin assessed as change in fluorescence intensity at 1 uM after 45 mins by fluorescence quenching analysis relative to control
[23] = Binding affinity to 5'-GCCGCCCG-3' DNA hairpin assessed as change in fluorescence intensity at 1 uM after 45 mins by fluorescence quenching analysis relative to control
[24] = Binding affinity to 5'-CGGCGGCG-3' DNA hairpin assessed as change in fluorescence intensity at 1 uM after 45 mins by fluorescence quenching analysis relative to control
[25] = Binding affinity to 5'-CGCCGCCG-3' DNA hairpin assessed as change in fluorescence intensity at 1 uM after 45 mins by fluorescence quenching analysis relative to control
[26] = Binding affinity to 5'-CGCGGGGC-3' DNA hairpin assessed as change in fluorescence intensity at 1 uM after 45 mins by fluorescence quenching analysis relative to control
[27] = Binding affinity to 5'-CGCGCCCG-3' DNA hairpin assessed as change in fluorescence intensity at 1 uM after 45 mins by fluorescence quenching analysis relative to control
[28] = Binding affinity to 5'-GCGCGGCG-3' DNA hairpin assessed as change in fluorescence intensity at 1 uM after 45 mins by fluorescence quenching analysis relative to control
[29] = Binding affinity to 5'-GCGCGCCC-3' DNA hairpin assessed as change in fluorescence intensity at 1 uM after 45 mins by fluorescence quenching analysis relative to control
[30] = Binding affinity to 5'-GCGCCGCC-3' DNA hairpin assessed as change in fluorescence intensity at 1 uM after 45 mins by fluorescence quenching analysis relative to control
[31] = Binding affinity to 5'-GGGCGCCG-3' DNA hairpin assessed as change in fluorescence intensity at 1 uM after 45 mins by fluorescence quenching analysis relative to control
[32] = Binding affinity to 5'-CGCGGCGG-3' DNA hairpin assessed as change in fluorescence intensity at 1 uM after 45 mins by fluorescence quenching analysis relative to control
[33] = Binding affinity to 5'-CCCCGCGG-3' DNA hairpin assessed as change in fluorescence intensity at 1 uM after 45 mins by fluorescence quenching analysis relative to control
[34] = Binding affinity to 5'-CCGCGCCG-3' DNA hairpin assessed as change in fluorescence intensity at 1 uM after 45 mins by fluorescence quenching analysis relative to control
[35] = Binding affinity to 5'-CCGCCCGG-3' DNA hairpin assessed as change in fluorescence intensity at 1 uM after 45 mins by fluorescence quenching analysis relative to control
[36] = Binding affinity to 5'-CCCGCGCC-3' DNA hairpin assessed as change in fluorescence intensity at 1 uM after 45 mins by fluorescence quenching analysis relative to control

NCC1O[C@H](O[C@H]2[C@@H](O)[C@H](O[C@@H]3[C@@H](O)[C@H](N)C[C@H](N)[C@H]3O[C@H]3O[C@H](CN)[C@@H](O)[C@H](O)[C@H]3N)O[C@@H]2CSCCNC(=O)CCSCC(=O)Nc2ccc(-c3c4ccc(=O)cc-4oc4cc(O)ccc34)c(C(=O)O)c2)[C@H](N)[C@@H](O)[C@@H]1O (stereo partly specified)
Activity [1]: 15% | Activity [2]: 15% | Activity [3]: 16% | Activity [4]: 16% | Activity [5]: 19.9% | Activity [6]: 23.6% | Activity [7]: 26.7% | Activity [8]: 28.6% | Activity [9]: 29.8% | Activity [10]: 30.2% | Activity [11]: 31.8% | Activity [12]: 35.1% | Activity [13]: 38.1% | Activity [14]: 39% | Activity [15]: 41.2% | Activity [16]: 42% | Activity [17]: 44.6% | Activity [18]: 44.6% | Activity [19]: 45.2% | Activity [20]: 45.3% | Activity [21]: 45.3% | Activity [22]: 45.7% | Activity [23]: 45.8% | Activity [24]: 46.5% | Activity [25]: 48.1% | Activity [26]: 48.3% | Activity [27]: 48.8% | Activity [28]: 49.1% | Activity [29]: 49.8% | Activity [30]: 50.4% | Activity [31]: 50.6% | Activity [32]: 52% | Activity [33]: 53.3% | Activity [34]: 53.7% | Activity [35]: 56.8% | Activity [36]: 63.4%
